The record followed here is patent publication US20250230159A1, “FUSED HETEROCYCLIC COMPOUNDS AS MODULATORS OF RAS SIGNALLING” (Shenzhen Ionova Life Science Co., Ltd., priority 2022, published 2025).

Assay [1] deals with KRAS-G12C/SOS1 interaction (Homo sapiens (Human), UniProt Q07889). The assay is described as follows: Protein-Protein Interaction (PPI) assay, SOS1-KRAS binding assay kit (HTRF). As to conditions: read-out: PPI Assay IC50.
A further assay relates to pERK in Hela cells. The assay is described as follows: Phospho-ERK (p-ERK) assay in Hela cells. The conditions noted are these: Homo sapiens, Table 1, 1 hour with compound, β-actin normalized. Format: cell-based. In short, it runs like this:
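Cells were treated for 1 h at 37 °C with compound in a 9-point, 3-fold series from 10 μM, then fixed and stained for pERK and β-actin. An In-Cell Western read-out normalized pERK to β-actin and to vehicle wells to give % inhibition and IC50.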

The structures appear in SMILES notation.

Chain of KRAS-G12C/SOS1 interaction (Q07889 whole entry, stated change not applied): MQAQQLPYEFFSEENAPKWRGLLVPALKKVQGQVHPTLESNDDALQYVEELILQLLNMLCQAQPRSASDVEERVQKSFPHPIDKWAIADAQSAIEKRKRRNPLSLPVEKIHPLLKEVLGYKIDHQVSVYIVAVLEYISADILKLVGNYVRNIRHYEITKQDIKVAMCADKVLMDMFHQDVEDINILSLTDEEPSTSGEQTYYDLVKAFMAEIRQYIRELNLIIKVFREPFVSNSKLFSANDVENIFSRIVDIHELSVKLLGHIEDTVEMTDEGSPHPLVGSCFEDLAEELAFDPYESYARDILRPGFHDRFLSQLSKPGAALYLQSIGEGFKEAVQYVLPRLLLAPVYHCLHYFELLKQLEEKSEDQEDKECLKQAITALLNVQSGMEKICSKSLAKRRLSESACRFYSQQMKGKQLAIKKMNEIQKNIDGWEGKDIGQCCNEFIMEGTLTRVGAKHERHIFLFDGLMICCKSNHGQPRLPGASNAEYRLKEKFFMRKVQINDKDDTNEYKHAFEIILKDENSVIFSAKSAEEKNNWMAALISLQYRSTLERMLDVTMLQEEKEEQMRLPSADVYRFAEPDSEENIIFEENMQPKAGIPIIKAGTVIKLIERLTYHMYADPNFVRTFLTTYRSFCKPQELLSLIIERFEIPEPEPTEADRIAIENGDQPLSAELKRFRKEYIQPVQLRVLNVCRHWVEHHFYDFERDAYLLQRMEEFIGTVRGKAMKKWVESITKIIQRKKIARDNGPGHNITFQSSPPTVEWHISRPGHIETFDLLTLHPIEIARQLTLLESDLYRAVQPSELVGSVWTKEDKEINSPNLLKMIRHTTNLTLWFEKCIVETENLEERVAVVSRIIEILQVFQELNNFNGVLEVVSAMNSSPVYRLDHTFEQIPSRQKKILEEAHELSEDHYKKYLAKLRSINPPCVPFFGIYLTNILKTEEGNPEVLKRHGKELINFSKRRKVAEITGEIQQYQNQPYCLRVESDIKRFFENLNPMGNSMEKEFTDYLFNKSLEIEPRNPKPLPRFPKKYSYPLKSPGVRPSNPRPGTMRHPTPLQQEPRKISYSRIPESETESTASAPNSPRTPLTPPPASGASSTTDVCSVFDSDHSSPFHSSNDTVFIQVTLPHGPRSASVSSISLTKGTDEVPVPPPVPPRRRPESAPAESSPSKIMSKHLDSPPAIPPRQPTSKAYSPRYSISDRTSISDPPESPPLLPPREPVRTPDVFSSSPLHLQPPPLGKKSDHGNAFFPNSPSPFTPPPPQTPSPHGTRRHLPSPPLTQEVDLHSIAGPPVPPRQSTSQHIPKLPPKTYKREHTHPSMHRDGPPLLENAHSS

As a reminder, the IC50 is the concentration at which inhibition is half-maximal. In the case of `Cc1nc(N[C@H](C)c2cccc(C(F)F)c2F)c2cc(C3=CCS(=O)(=O)CC3)c3nncn3c2n1` [Example 151, (R)-4-(4-((1-(3-(difluoromethyl)-2-fluorophenyl)ethyl)amino)-2-methyl-[1,2,4]triazolo[4′,3′:1,6]pyrido[2,3-d]pyrimidin-6-yl)-3,6-dihydro-2H-thiopyran 1,1-dioxide], the IC50 in assay [1] was less than 0.1 µM; in the assay on pERK in Hela cells it was greater than 0.1 µM.

In the case of `Cc1nc(N[C@H](C)c2cccc(C(F)F)c2F)c2cc(C3CCS(=O)(=O)CC3)c3nncn3c2n1` [Example 152], the figures for the IC50 (in assay [1]; with pERK in Hela cells) were less than 0.1 µM and greater than 0.1 µM, respectively.

On to `C[C@@H](Nc1ncnc2c1cc(N1CCOCC1)c1ncnn12)c1cc(N)cc(C(F)(F)F)c1` [Example 153, (R)—N-(1-(3-amino-5-(trifluoromethyl)phenyl)ethyl)-4-morpholino-[1,2,4]triazolo[1′,5′:1,6]pyrido[2,3-d]pyrimidin-6-amine], for which the IC50 in assay [1] was less than 0.1 µM; in the assay on pERK in Hela cells it was greater than 0.1 µM.

Consider `Cc1nc2c(N3CCOCC3)cc3c(N[C@H](C)c4cccc(C(F)F)c4F)ncnc3n2n1` [Example 154], for which the IC50 (in assay [1]; in the assay with pERK in Hela cells) was less than 0.1 µM each time.

Regarding `Cc1nc2c(N3CCOCC3=O)cc3c(N[C@H](C)c4cccc(C(F)F)c4F)ncnc3n2n1` [Example 155], the IC50 (in assay [1]; in the assay with pERK in Hela cells) was less than 0.1 µM throughout.

With `Cc1nc2c(N3CCOC4(CC4)C3=O)cc3c(N[C@H](C)c4cccc(C(F)F)c4F)ncnc3n2n1` [Example 156], the IC50 (in assay [1]; in the assay on pERK in Hela cells) was less than 0.1 µM throughout.

Consider `Cc1nc2c(N3CC4(CC4)OCC3=O)cc3c(N[C@H](C)c4cccc(C(F)F)c4F)ncnc3n2n1` [Example 157], for which the IC50 (in assay [1]; in the assay on pERK in Hela cells) was less than 0.1 µM in each case.

In the case of `Cc1nc2c(N3CCOCCC3=O)cc3c(N[C@H](C)c4cccc(C(F)F)c4F)ncnc3n2n1` [Example 158], the IC50 (in assay [1]; in the assay on pERK in Hela cells) was less than 0.1 µM in each case.

As to `C[C@@H](Nc1ncnc2c1cc(N1CCOC[C@@H]1C)c1nncn12)c1cc(N)cc(C(F)(F)F)c1` [Example 159], the IC50 in assay [1] was less than 0.1 µM; in the assay on pERK in Hela cells, greater than 0.1 µM.

With `C[C@@H](Nc1ncnc2c1cc(N1CCOCC1=O)c1nncn12)c1cccc(C(F)F)c1F` [Example 162], the IC50 (in assay [1]; with pERK in Hela cells) was less than 0.1 µM each time.

For `Cc1nc(N[C@H](C)c2cccc(C(F)F)c2F)c2cc(N3CCOCC3=O)c3nncn3c2n1` [Example 163], the IC50 (in assay [1]; in the assay with pERK in Hela cells) was less than 0.1 µM each time.

As to `C[C@@H](Nc1ncnc2c1cc(N1CCN(C)C(=O)C1)c1nncn12)c1cccc(C(F)F)c1F` [Example 164], the IC50 (in assay [1]; with pERK in Hela cells) was less than 0.1 µM each time.

As to `C[C@@H](Nc1ncnc2c1cc(N1CCOC1=O)c1nncn12)c1cccc(C(F)F)c1F` [Example 167], the IC50 (in assay [1]; in the assay with pERK in Hela cells) was less than 0.1 µM each time.

As for `C[C@@H](Nc1ncnc2c1cc(N1C(=O)COC[C@@H]1C)c1nncn12)c1cccc(C(F)F)c1F` [Example 168], the IC50 (in assay [1]; in the assay with pERK in Hela cells) was less than 0.1 µM throughout.

Turning to `Cc1nc2c(C3(C(F)(F)F)CC3)cc3c(N[C@H](C)c4cccc(C(F)F)c4F)ncnc3n2n1` [Example 169, (R)—N-(1-(3-(difluoromethyl)-2-fluorophenyl)ethyl)-2-methyl-4-(1-(trifluoromethyl)cyclopropyl)-[1,2,4]triazolo[1′,5′:1,6]pyrido[2,3-d]pyrimidin-6-amine], the IC50 (in assay [1]; in the assay with pERK in Hela cells) was less than 0.1 µM in each case.

Turning to `Cc1nc2c(C3(C#N)CC3)cc3c(N[C@H](C)c4cccc(C(F)F)c4F)ncnc3n2n1` [Example 170, (R)-1-(6-((1-(3-(difluoromethyl)-2-fluorophenyl)ethyl)amino)-2-methyl-[1,2,4]triazolo[1′,5′:1,6]pyrido[2,3-d]pyrimidin-4-yl)cyclopropane-1-carbonitrile], the IC50 (in assay [1]; with pERK in Hela cells) was less than 0.1 µM throughout.

`Cc1nc(N[C@H](C)c2cccc(C(F)F)c2F)c2cc(C3(C(F)F)CC3)c3nc(C)nn3c2n1` [Example 171]: the IC50 (in assay [1]; in the assay with pERK in Hela cells) was less than 0.1 µM each time.

As to `C[C@@H](Nc1ncnc2c1cc(C1(C(F)(F)F)CC1)c1nncn12)c1cccc(C(F)F)c1F` [Example 172], the IC50 (in assay [1]; in the assay on pERK in Hela cells) was less than 0.1 µM in each case.

Regarding `C[C@@H](Nc1ncnc2c1cc(C1(C(F)F)CC1)c1nncn12)c1cccc(C(F)F)c1F` [Example 173], the IC50 (in assay [1]; in the assay with pERK in Hela cells) was less than 0.1 µM throughout.

On to `Cc1nc2c(N3CC4(COC4)C3)cc3c(N[C@H](C)c4cccc(C(F)F)c4F)ncnc3n2n1` [Example 174], for which the IC50 (in assay [1]; in the assay with pERK in Hela cells) was less than 0.1 µM in each case.
